Measured values published in patent US8178678B2, “Bis-quaternary ammonium salts and methods for modulating neuronal nicotinic acetylcholine receptors” (University of Kentucky Research Foundation, priority 2006, dated 2012).
Like-named read-outs stand apart in the source and are kept apart here.

Columns and labels:
[1] = target: T1, Rat Striatal Nicotinic Receptors ([^3H]NIC binding sites; α4β2) (Rattus norvegicus, UniProt P09483+P12390); assay: Inhibition of [^3H]NIC binding; details: for Ki: full concentration effect, 3 nM [^3H]NIC, nonspecific 10 μM cytisine, rat brain membranes, read-out: [^3H]NIC binding, Ki
T1 construct: Whole brain, excluding cortex and cerebellum, was homogenized in 20 vol of ice-cold buffer; from tissue; host or cells: rat brain membranes (whole brain excluding cortex and cerebellum)

[2] = system: nicotinic receptors mediating S-nicotine-evoked [^3H]DA release in rat striatal slices; assay: Inhibition of S-nicotine-evoked [^3H]dopamine release from superfused rat striatal slices; assay type: cell-based; details: 1 h, read-out: [^3H]DA release, % inhibition of S-nicotine-evoked release
Procedure: Rat striatal slices (500 μm thickness, 6-8 mg wet weight) were incubated for 30 minutes in Krebs buffer (118 mM NaCl, 4.7 mM KCl, 1.2 mM MgCl2, 1.0 mM NaH2PO4, 1.3 mM CaCl2, 11.1 mM glucose, 25 mM NaHCO3, 0.11 mM L-ascorbic acid, and 0.004 mM disodium EDTA; pH 7.4, and saturated with 95% O2/5% CO2) in a metabolic shaker at 34° C. Slices were rinsed with 15 mL of fresh buffer and incubated for an additional 30 minutes in fresh buffer containing 0.1 μM [^3H]dopamine (DA; 6 slices/3 mL). Subsequently, slices were rinsed with 15 mL of fresh buffer and transferred to a glass superfusion chamber. Slices were superfused (1.0 mL/min) for 60 minutes with Krebs buffer containing nomifensine (10 μM) and pargyline (10 μM) and maintained at 34° C., pH 7.4, with continual aeration (95% O2/5% CO2). Two five minute samples (5 mL each) were collected to determine basal outflow of [^3H]DA. The bis-quaternary ammonium analogs were added to the superfusion buffer after the collection of the second sample and remained in the buffer until 12 consecutive five minute samples were collected. Subsequently, S-nicotine (NIC; 10 μM) was added to the buffer and an additional 12 consecutive five minute samples were collected. At the end of the experiment, each slice was solubilized and the [^3H] content of the tissue determined.
Radioactivity in the superfusate and tissue samples was determined by liquid scintillation spectroscopy. Fractional release for tritium collected in each sample was divided by the total tritium present in the tissue at the time of sample collection and was expressed as a percentage of total tritium. Basal [^3H]outflow was calculated from the average of the tritium collected in the two five minute samples just before addition of the quaternary analog. The sum of the increase in collected tritium resulting from either exposure to the test compound or exposure to S-nicotine in the absence and presence of the test compound equaled total [^3H]overflow. [^3H]Overflow was calculated by subtracting the [^3H]outflow during an equivalent period of prestimulation from the values in samples collected during and after drug exposure. Inasmuch as the radiolabelled compounds were not separated and identified, the tritium collected in superfusate is referred to as either [3H]outflow or [^3H]overflow, rather than as [^3H]DA. [^3H]Overflow primarily represents [^3H]DA in the presence of nomifensine and pargyline in the superfusion buffer.
The bis-quaternary ammonium analogs were also evaluated for their ability to inhibit NIC evoked [^3H]DA release. In these experiments, the striatal slices were superfused for 60 minutes with 100 nM concentration of the quaternary analogs prior to NIC (10 μM) exposure. Antagonist activity was evaluated by comparing the NIC-evoked [^3 H]overflow in the absence and presence of the analogs. The relative order of potency of the quaternary analogs for inhibition of NIC-evoked [^3H]DA release from rat striatal slices is illustrated in Table 1.
^aData are % inhibition at 100 nM concentration of the bis-quaternary ammonium analogs for at least 1-3 independent experiments; with the exception of when a Ki value in μM is provided, in which case a full concentration effect was evaluated. Specific binding in the [^3H]NIC binding assay is calculated as the difference between the total binding of 3 nM [^3H]NIC and nonspecific binding in the presence of 10 μM cold cytisine. Specific binding for the [^3H]MLA binding assay is calculated as the difference between the total binding of […] [^3H]MLA to the receptors alone and its nonspecific binding in the presence of […] cold S-nicotine. Analog-induced inhibition of S-nicotine-evoked [^3H]DA release is calculated as a percent of that in the absence of the bis-quaternary ammonium analog.

[3] = target: T2, Rat Striatal Nicotinic Receptors ([^3H]MLA binding sites; α7) (Rattus norvegicus, UniProt Q05941); assay: Inhibition of [^3H]MLA (methyllycaconitine) binding; details: for Ki: full concentration effect, read-out: [^3H]MLA binding, Ki; for inhibition at 0.1 µM: read-out: [^3H]MLA binding, % inhibition
T2 construct: Whole brain, excluding cortex and cerebellum, was homogenized in 20 vol of ice-cold buffer; from tissue; host or cells: rat brain membranes (whole brain excluding cortex and cerebellum)
How it was run: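 Rat brain membranes were washed by repeated centrifugation at 25,000 g, with a 10 min incubation at 37° C. in between. Samples of 250 μl, containing 100-140 μg of membrane protein, 3 nM [^3H]-methyllycaconitine and test analog in 50 mM Tris assay buffer, were incubated in 96-well plates for 60 min at room temperature. Nonspecific binding was defined with 10 μM S-nicotine. Bound radioactivity was collected on polyethylenimine-soaked GF/B filter plates and counted on a TopCount.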

[4] = target: T1, Rat Striatal Nicotinic Receptors ([^3H]NIC binding sites; α4β2); assay: Inhibition of [^3H]NIC binding; details: 1 h; 100 nM analog; 3 nM [^3H]NIC; nonspecific 10 μM cytisine; rat brain membranes
[5] = 100 nM analog superfused 60 min before NIC 10 μM, rat striatal slices
[6] = [^3H]MLA, nonspecific S-nicotine, rat brain membranes
[7] = 100 nM analog, [^3H]MLA, nonspecific S-nicotine, rat brain membranes

T1 sequence (P09483 31-630): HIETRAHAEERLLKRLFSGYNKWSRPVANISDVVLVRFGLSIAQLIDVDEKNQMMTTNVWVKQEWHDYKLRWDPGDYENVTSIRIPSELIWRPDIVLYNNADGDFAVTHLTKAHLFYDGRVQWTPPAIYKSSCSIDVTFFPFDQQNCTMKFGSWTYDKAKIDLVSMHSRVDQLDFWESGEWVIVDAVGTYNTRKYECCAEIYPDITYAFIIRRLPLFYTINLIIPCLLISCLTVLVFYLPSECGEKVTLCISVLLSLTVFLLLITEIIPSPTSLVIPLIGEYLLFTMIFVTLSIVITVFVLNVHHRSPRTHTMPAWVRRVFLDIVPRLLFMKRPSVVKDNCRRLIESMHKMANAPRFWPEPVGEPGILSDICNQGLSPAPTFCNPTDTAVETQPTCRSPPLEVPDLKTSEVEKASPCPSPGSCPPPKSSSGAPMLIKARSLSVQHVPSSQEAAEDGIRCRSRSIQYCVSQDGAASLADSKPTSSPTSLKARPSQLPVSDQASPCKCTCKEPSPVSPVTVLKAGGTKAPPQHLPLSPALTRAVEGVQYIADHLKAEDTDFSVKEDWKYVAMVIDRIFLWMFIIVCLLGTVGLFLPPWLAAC
T1 sequence (P12390 25-500): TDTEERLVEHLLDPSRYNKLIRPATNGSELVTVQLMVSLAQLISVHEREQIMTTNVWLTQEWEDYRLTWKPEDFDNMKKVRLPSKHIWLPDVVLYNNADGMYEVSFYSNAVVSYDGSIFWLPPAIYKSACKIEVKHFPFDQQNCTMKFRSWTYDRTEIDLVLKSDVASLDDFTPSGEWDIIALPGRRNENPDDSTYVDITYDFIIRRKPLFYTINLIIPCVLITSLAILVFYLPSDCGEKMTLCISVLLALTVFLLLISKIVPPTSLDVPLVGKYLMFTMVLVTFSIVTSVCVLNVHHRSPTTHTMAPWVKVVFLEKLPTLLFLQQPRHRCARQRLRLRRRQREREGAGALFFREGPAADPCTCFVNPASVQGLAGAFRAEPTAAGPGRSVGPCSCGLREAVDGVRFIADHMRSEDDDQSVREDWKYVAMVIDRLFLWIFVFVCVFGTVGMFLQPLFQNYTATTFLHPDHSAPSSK
T2 sequence (Q05941 23-502): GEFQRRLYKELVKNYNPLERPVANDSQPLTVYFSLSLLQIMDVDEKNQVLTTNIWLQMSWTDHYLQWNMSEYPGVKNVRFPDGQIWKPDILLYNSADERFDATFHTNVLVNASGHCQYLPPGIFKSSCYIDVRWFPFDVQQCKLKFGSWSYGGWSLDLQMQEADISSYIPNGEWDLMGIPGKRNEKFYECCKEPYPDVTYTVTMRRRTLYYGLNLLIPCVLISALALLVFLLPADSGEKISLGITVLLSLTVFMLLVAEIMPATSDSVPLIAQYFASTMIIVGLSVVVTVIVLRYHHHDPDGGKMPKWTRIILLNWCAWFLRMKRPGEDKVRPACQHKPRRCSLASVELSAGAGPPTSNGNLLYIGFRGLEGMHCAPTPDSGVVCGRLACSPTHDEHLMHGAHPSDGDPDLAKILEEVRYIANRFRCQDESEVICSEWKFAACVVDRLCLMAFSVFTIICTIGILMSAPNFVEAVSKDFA

Row | SMILES | Ki [1] [µM] | inhibition at 0.1 µM [2, 5] [%] | Ki [3, 6] [µM] | inhibition at 0.1 µM [4] [%] | inhibition at 0.1 µM [3, 7] [%] | also measured
1 | C(#Cc1ccc(C#CCC[n+]2ccc3c(c2)CCCC3)cc1)CC[n+]1ccc2c(c1)CCCC2 [Example 99, N,N′-[(1,4-phenylene)-bis-(4-butynyl)]-bis-(5,6,7,8-tetrahydroisoquiolinium)dibromide] | 8.04 | 14 | 0.87 |  |  | 
2 | C(C#CCCCC[n+]1ccc2c(c1)CCCC2)#CCCCC[n+]1ccc2c(c1)CCCC2 [Example 96, N,N′-(5,7-dodecadiyn-1,12-diyl)-bis-(5,6,7,8-tetrahydroisoquinolinium)dichloride] | 11.3 |  | 5.36 |  |  | 
3 | c1cc2c([n+](CCCCc3ccc(CCCC[n+]4cccc5c4CCCC5)cc3)c1)CCCC2 [Example 15, N,N′-[1,4-phenylenedi-(4-butanyl)]-bis-(5,6,7,8-tetrahydroquinolinium)dibromide] | 12 |  | 7.68 |  |  | 
4 | Cc1ccc[n+](CCC#Cc2ccc(C#CCC[n+]3cccc(C)c3)cc2)c1 [Example 97, N,N′-[(1,4-phenylene)-bis-(4-butynyl)]-bis-(3-methyl-pyridinium)dibromide] | 2.75 ± 0.4 | 21 | > 100 |  |  | 
5 | Cc1cccc[n+]1CCCC/C=C\C=C/CCCC[n+]1ccccc1C [Example 2, cis-cis-N,N′-(dodeca-5,7-diene-1,12-diyl)-bis-(2-methyl-pyridinium)dibromide] |  |  |  |  |  | inhibition at 0.1 µM ([1]; 1 h, read-out: [^3H]NIC binding, % inhibition): 11%; inhibition at 0.1 µM ([2]; Rattus norvegicus): 0%; inhibition at 0.1 µM [3]: 4.2%
6 | Cc1cc[n+](CCCCc2ccc(CCCC[n+]3ccc(C)cc3)cc2)cc1 [Example 13, N,N′-[1,4-phenylenedi-(4-butanyl)]-bis-(4-methylpyridinium)dibromide] | > 100 | 32 | > 100 |  |  | 
7 | C(/C=C\CCCC[n+]1cccc2c1CCCC2)=C/CCCC[n+]1cccc2c1CCCC2 [Example 5, cis-cis-N,N′-(dodeca-5,7-diene-1,12-diyl)-bis-(5,6,7,8-tetrahydro-quinolinium)dibromide] | 3.63 |  | 7.64 |  |  | 
8 | c1cc(CCCC[n+]2ccc3c(c2)CCCC3)ccc1CCCC[n+]1ccc2c(c1)CCCC2 [Example 16, N,N′-[1,4-phenylenedi-(4-butanyl)]-bis-(5,6,7,8-tetrahydroisoquinolinium)dibromide] | > 100 |  | 15.3 |  |  | 
9 | c1ccc(CCCCC[n+]2ccc3ccccc3c2)c(CCCCC[n+]2ccc3ccccc3c2)c1 [Example 41, 1,2-bis-(5-isoquinolinium-pentyl)-benzene dibromide] |  | 54 |  | 1.9 | 0 | 
10 | c1cc(CCCCC[n+]2ccc3ccccc3c2)cc(CCCCC[n+]2ccc3ccccc3c2)c1 [Example 69, 1,3-bis-(5-isoquinolinium-pentyl)-benzene dibromide] |  | 0 |  | 8.8 | 5.2 | 
11 | C(#Cc1cccc(C#CCCC[n+]2ccc3ccccc3c2)c1)CCC[n+]1ccc2ccccc2c1 [Example 55, 1,3-bis-(5-isoquinolinium-pent-1-ynyl)-benzene dibromide] |  | 31 |  | 7.4 | 5.6 | 
12 | Cc1cc[n+](CCC#Cc2ccc(C#CCC[n+]3ccc(C)c(C)c3)cc2)cc1C [Example 100, N,N′-[(1,4-phenylene)-bis-(4-butynyl)]-bis-(3,4-dimethyl-pyridinium)dibromide] |  | 31 |  | 3 | 0 | 
13 | Cc1ccc[n+](CCCC#Cc2cccc(C#CCCC[n+]3cccc(C)c3)c2)c1 [Example 49, 1,3-bis-[5-(3-methyl-pyridinium)-pent-1-ynyl]-benzene dibromide] |  | 6 |  | 0.5 | 8 | 
14 | Cc1ccc[n+](CCCC#Cc2ccccc2C#CCCC[n+]2cccc(C)c2)c1 [Example 24, 1,2-bis-[5-(3-methyl-pyridinium)-pent-1-ynyl]-benzene dibromide] |  | 46 |  | 3.9 | 0 | 
15 | C(/C=C\CCCC[n+]1ccc2c(c1)CCCC2)=C/CCCC[n+]1ccc2c(c1)CCCC2 [Example 6, cis-cis-N,N′-(dodeca-5,7-diene-1,12-diyl)-bis-(5,6,7,8-tetrahydro-isoquinolinium)dibromide] | 5.84 |  | 3 |  |  | 
16 | Brc1ccc[n+](CCCCCc2ccccc2CCCCC[n+]2cccc(Br)c2)c1 [Example 44, 1,2-bis-[5-(3-bromo-pyridinium)-pentyl]-benzene dibromide] |  | 7 |  | 2.9 | 0.9 | 
17 | Cc1cc(C)c[n+](CCCC#Cc2cccc(C#CCCC[n+]3cc(C)cc(C)c3)c2)c1 [Example 53, 1,3-bis-[5-(3,5-dimethyl-pyridinium)-pent-1-ynyl]-benzene dibromide] |  | 4 |  | 0 | 1.3 | 
18 | Cc1cccc[n+]1CCCCCc1cccc(CCCCC[n+]2ccccc2C)c1 [Example 62, 1,3-bis-[5-(2-methyl-pyridinium)-pentyl]-benzene dibromide] |  | 62 |  | 7.2 | 0 | 
19 | Cc1cc[n+](CCCCCc2cccc(CCCCC[n+]3ccc(C)cc3C)c2)c(C)c1 [Example 65, 1,3-bis-[5-(2,4-dimethyl-pyridinium)-pentyl]-benzene dibromide] |  | 26 |  | 0.5 | 5.6 | 
20 | Cc1cc(C)c[n+](CCCCCc2cccc(CCCCC[n+]3cc(C)cc(C)c3)c2)c1 [Example 67, 1,3-bis-[5-(3,5-dimethyl-pyridinium)-pentyl]-benzene dibromide] |  | 34 |  | 4.8 | 1.4 | 
21 | Cc1cc[n+](CCCCCc2cccc(CCCCC[n+]3ccc(C)cc3)c2)cc1 [Example 64, 1,3-bis-[5-(4-methyl-pyridinium)-pentyl]-benzene dibromide] |  | 27 |  | 4.6 | 3.5 | 
22 | Cc1ccc[n+](CCCCCc2cccc(CCCCC[n+]3cccc(C)c3)c2)c1 [Example 63, 1,3-bis-[5-(3-methyl-pyridinium)-pentyl]-benzene dibromide] |  | 45 |  | 3.5 | 6.24 | 
